Counter-ions that a name gives are not always drawn.
Legend:
[1] = molecular target: T1, Tau K18 fragment aggregates (amino acids 244 to 372 of human Tau441) (Homo sapiens, UniProt P10636); experiment: Tau K18 disaggregation assay by ThT; format: biochemical; conditions: ThT fluorescence; 2 μM K18 aggregates, 30 minutes at RT
T1 construct: encompassing amino acids 244 to 372 of the longest isoform (2N4R) of human Tau441; purchased Biotechne; host or cells: bacteria
Description: Tau K18 Disaggregation Assay by ThT
The Tau K18 fragment, encompassing amino acids 244 to 372 of the longest isoform (2N4R) of human Tau441, was expressed in bacteria and purified (Biotechne). For the K18 disaggregation assay by ThT, 35 μM of recombinant K18 in PBS were aggregated for 24 hours at 37° C. in presence of 25 μM of heparin (Sigma-Aldrich) and 10 mM of 1,4-Dithiothreito (DTT from Sigma-Aldrich) under shaking at 750 RPM. Compound 1 was dissolved in anhydrous dimethyl sulfoxide (DMSO, Sigma-Aldrich) to reach a concentration of 10 mM. K18 aggregates and serial dilutions of compounds were mixed together in PBS (volume 50 μL) to a final concentration of 2 μM of K18 aggregates and from 400 to 0.1 μM of Compound 1. The mixture was incubated for 30 minutes at room temperature (RT), then 40 μL of this mixture were transferred into a black 384-well plate assay (Perkin-Elmer) and mixed with 10 μL of 100 μM ThT in 250 mM glycine (both from Sigma-Aldrich) in PBS. Fluorescence (relative fluorescence units; RFU) was measured in monoplicate or duplicate on a Tecan reader (excitation: 440 nm; emission: 485 nm). Percentage of K18 disaggregation was then calculated and half maximal effective concentration (EC50) was determined using GraphPad Prism version 8 (GraphPad Software) assuming a one-binding site fitting model, see Table 3 and Table 4.

[2] = molecular target: T2, flTau aggregates (longest isoform of human Tau, 2N4R) (Homo sapiens, UniProt P10636); experiment: Full-length Tau (flTau) disaggregation assay by Thioflavin T (ThT); format: biochemical; conditions: ThT fluorescence; 60 nM flTau aggregates, 30 minutes at RT; read-out: flTau disaggregation EC50
T2 construct: 35 μM of recombinant full-length (fl) Tau in phosphate-buffered saline (PBS) were aggregated; purchased Biotechne; host or cells: bacteria
T2 sequence (P10636 1-441 isoform P10636-8): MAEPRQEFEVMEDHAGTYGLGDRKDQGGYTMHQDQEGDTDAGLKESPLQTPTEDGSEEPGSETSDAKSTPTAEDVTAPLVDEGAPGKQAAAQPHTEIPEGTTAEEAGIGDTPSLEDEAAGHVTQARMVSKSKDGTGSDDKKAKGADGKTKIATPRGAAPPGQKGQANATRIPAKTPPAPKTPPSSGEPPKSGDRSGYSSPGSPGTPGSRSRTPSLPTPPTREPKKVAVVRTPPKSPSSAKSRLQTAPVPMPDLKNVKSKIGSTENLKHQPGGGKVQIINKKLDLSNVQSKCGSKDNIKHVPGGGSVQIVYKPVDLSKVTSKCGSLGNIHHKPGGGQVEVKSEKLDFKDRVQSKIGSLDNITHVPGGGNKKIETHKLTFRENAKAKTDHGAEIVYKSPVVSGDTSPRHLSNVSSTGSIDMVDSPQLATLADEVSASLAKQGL
Description: Full-Length Tau (flTau) Disaggregation Assay by Thioflavin T (ThT)
The longest isoform of human Tau (2N4R; 441 amino acids) was expressed in bacteria and purified (Biotechne). For the Tau disaggregation assay by ThT, 35 μM of recombinant full-length (fl) Tau in phosphate-buffered saline (PBS) were aggregated for 72 hours at 37° C. in presence of 35 μM of heparin (Sigma-Aldrich) and 10 mM of […] (Sigma-Aldrich) under shaking at 1000 RPM. Compound 1 was dissolved in anhydrous dimethyl sulfoxide (DMSO, Sigma-Aldrich) to reach a concentration of 2.5 mM. flTau aggregates and serial dilutions of compound 1 were mixed together in PBS (volume 50 μL) to a final concentration of 60 nM of flTau aggregates and from 20 to 0.0012 μM of Compound 1. The mixture was incubated for 30 minutes at room temperature (RT), then 40 μL of this mixture were transferred into a black 384-well plate assay (Perkin-Elmer) and mixed with 10 μL of 20 μM ThT in 250 mM glycine (both from Sigma-Aldrich) in PBS. Fluorescence (relative fluorescence units; RFU) was measured in monoplicate or duplicate on a Tecan reader (excitation: 440 nm; emission: 485 nm). Percentage of flTau disaggregation was then calculated and the half maximal effective concentration (EC50) was determined using GraphPad Prism version 8 (GraphPad Software) assuming a one-binding site fitting model, see Table 3 and Table 4.

T1 sequence (P10636 561-689): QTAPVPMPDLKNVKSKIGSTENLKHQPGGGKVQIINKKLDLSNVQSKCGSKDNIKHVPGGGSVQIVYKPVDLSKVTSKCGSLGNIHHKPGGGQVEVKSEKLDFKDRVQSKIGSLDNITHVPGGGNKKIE

SMILES	EC50 [1]	EC50 [2]
O=C(Nc1c[nH]c2ccccc12)c1ccc2oc(N3CCOCC3)nc2c1 [Example 7, N-(1H-indol-3-yl)-2-morpholinobenzo[d]oxazole-5-carboxamide]	< 1 µM	< 1 µM
c1ccc2c(-c3cnn(-c4ccc5oc(N6CCOCC6)nc5c4)c3)c[nH]c2c1 [Example 9, 5-(4-(1H-indol-3-yl)-1H-pyrazol-1-yl)-2-morpholinobenzo[d]oxazole]	< 1 µM	< 1 µM
O=C(Nc1ccc2nc(N3CCOCC3)sc2c1)c1c[nH]c2ccc(F)cc12 [Example 17, 5-fluoro-N-(2-morpholinobenzo[d]thiazol-6-yl)-1H-indole-3-carboxamide]	1 to 10 µM	< 1 µM
c1ccc2c(C3CCN(c4ccc5oc(N6CCOCC6)nc5c4)CC3)c[nH]c2c1 [Example 19, 5-(4-(1H-indol-3-yl)piperidin-1-yl)-2-morpholinobenzo[d]oxazole]	1 to 10 µM	1 to 10 µM
c1cnc2[nH]cc(C3CCN(c4ccc5oc(N6CCOCC6)nc5c4)CC3)c2c1 [Example 20, 5-(4-(1H-pyrrolo[2,3-b]pyridin-3-yl)piperidin-1-yl)-2-morpholinobenzo[d]oxazole]	1 to 10 µM	< 1 µM
c1ccc2c(C3CCN(c4cc5sc(N6CCOCC6)nc5cn4)CC3)c[nH]c2c1 [Example 24, 4-(6-(4-(1H-indol-3-yl)piperidin-1-yl)thiazolo[4,5-c]pyridin-2-yl)morpholine]	< 1 µM	< 1 µM
Cn1cc(C2=CCN(c3ccc4oc(N5CCOCC5)nc4c3)CC2)c2cc(F)cnc21 [Example 32, 5-(4-(5-fluoro-1-methyl-1H-pyrrolo[2,3-b]pyridin-3-yl)-3,6-dihydropyridin-1(2H)-yl)-2-morpholinobenzo[d]oxazole]	1 to 10 µM	< 1 µM
Cn1cc(C2CCN(c3ccc4oc(N5CCOCC5)nc4c3)C2)c2cc(F)cnc21 (stereo not shown) [Example 33, 5-(3-(5-fluoro-1-methyl-1H-pyrrolo[2,3-b]pyridin-3-yl)pyrrolidin-1-yl)-2-morpholinobenzo[d]oxazole]	1 to 10 µM	1 to 10 µM
c1ccc2c(C3CCN(c4cc5sc(N6CCOCC6)nc5cn4)CC3)n[nH]c2c1 [Example 35, 4-(6-(4-(1H-indazol-3-yl)piperidin-1-yl)thiazolo[4,5-c]pyridin-2-yl)morpholine]	1 to 10 µM	1 to 10 µM
c1ccc2c(Nc3ccc4oc(N5CCOCC5)nc4c3)n[nH]c2c1 [Example 36, N-(1H-indazol-3-yl)-2-morpholinobenzo[d]oxazol-5-amine]	10 to 50 µM	1 to 10 µM
c1ccc2c(C3CCN(c4ccc5oc(N6CCOCC6)nc5c4)C3)n[nH]c2c1 (stereo not shown) [Example 37, 5-(3-(1H-indazol-3-yl)pyrrolidin-1-yl)-2-morpholinobenzo[d]oxazole]	< 1 µM	1 to 10 µM
c1ccc2c(C3CCN(c4ccc5oc(N6CCOCC6)nc5c4)C3)n[nH]c2c1 (stereo not shown) [Example 38, 5-(3-(1H-indazol-3-yl)pyrrolidin-1-yl)-2-morpholinobenzo[d]oxazole]	1 to 10 µM	1 to 10 µM
c1ccc2c(C3CCN(c4cnc5nc(N6CCOCC6)sc5c4)CC3)n[nH]c2c1 [Example 41, 4-(6-(4-(1H-indazol-3-yl)piperidin-1-yl)thiazolo[4,5-b]pyridin-2-yl)morpholine]	1 to 10 µM	1 to 10 µM
c1ccc2c(C3CCN(c4ccc5oc(N6CCOCC6)nc5n4)CC3)n[nH]c2c1 [Example 43, 5-(4-(1H-indazol-3-yl)piperidin-1-yl)-2-morpholinooxazolo[4,5-b]pyridine]	1 to 10 µM	1 to 10 µM
c1ccc2c(C3CCN(c4ccc5nc(N6CCOCC6)sc5c4)CC3)n[nH]c2c1 [Example 44, 4-(6-(4-(1H-indazol-3-yl)piperidin-1-yl)benzo[d]thiazol-2-yl)morpholine]	1 to 10 µM	1 to 10 µM
Cn1cc(C#Cc2ccc3oc(N4CCOCC4)nc3c2)c2cc(F)cnc21 [Example 46, 5-((5-fluoro-1-methyl-1H-pyrrolo[2,3-b]pyridin-3-yl)ethynyl)-2-morpholinobenzo[d]oxazole]	1 to 10 µM	1 to 10 µM
c1ccc2c(C3CCN(c4cnc5nc(N6CCOCC6)oc5c4)CC3)n[nH]c2c1 [Example 47, 6-(4-(1H-indazol-3-yl)piperidin-1-yl)-2-morpholinooxazolo[4,5-b]pyridine]	10 to 50 µM	1 to 10 µM
C1=C(c2n[nH]c3ccccc23)CCN(c2ccc3oc(N4CCOCC4)nc3c2)C1 [Example 50, 5-(4-(1H-indazol-3-yl)-3,6-dihydropyridin-1(2H)-yl)-2-morpholinobenzo[d]oxazole]	< 1 µM	< 1 µM
Cn1cc(C2CCN(c3ccc4oc(N5CCOCC5)nc4c3)CC2)c2cc(F)ccc21 [Example 51, 5-(4-(5-fluoro-1-methyl-1H-indol-3-yl)piperidin-1-yl)-2-morpholinobenzo[d]oxazole]	10 to 50 µM	1 to 10 µM
COc1ccc2c(C3CCN(c4ccc5oc(N6CCOCC6)nc5c4)CC3)c[nH]c2n1 [Example 104, 5-(4-(6-methoxy-1H-pyrrolo[2,3-b]pyridin-3-yl)piperidin-1-yl)-2-morpholinobenzo[d]oxazole]	1 to 10 µM	1 to 10 µM
Cn1cc(C2CCN(c3cnc4nc(N5CCOCC5)sc4c3)CC2)c2cc(F)cnc21 [Example 109, 4-(6-(4-(5-fluoro-1-methyl-1H-pyrrolo[2,3-b]pyridin-3-yl)piperidin-1-yl)thiazolo[4,5-b]pyridin-2-yl)morpholine hydrochloride]	10 to 50 µM	1 to 10 µM
Cn1cc(C2CCN(c3cc4sc(N5CCOCC5)nc4cn3)CC2)c2cc(F)cnc21 [Example 110, 4-(6-(4-(5-fluoro-1-methyl-1H-pyrrolo[2,3-b]pyridin-3-yl)piperidin-1-yl)thiazolo[4,5-c]pyridin-2-yl)morpholine hydrochloride]	10 to 50 µM	1 to 10 µM
Cn1cc(C2CCN(c3ccc4nc(N5CCOCC5)oc4c3)CC2)c2cc(F)cnc21 [Example 111, 6-(4-(5-fluoro-1-methyl-1H-pyrrolo[2,3-b]pyridin-3-yl)piperidin-1-yl)-2-morpholinobenzo[d]oxazole hydrochloride]	1 to 10 µM	1 to 10 µM

Reference: US20230391774A1, “Novel Compounds” (AC Immune SA, priority 2020, published 2023)
